{"source": "paper PMC6073568", "about": "“Efficient Lead Finding, Activity Enhancement and Preliminary Selectivity Control of Nuclear Receptor Ligands Bearing a Phenanthridinone Skeleton” (International Journal of Molecular Sciences, 2018)"}
{"target": "T1, LXRβ (Homo sapiens, UniProt P55055)", "T1 construct": "CMX-GAL4N-hLXRβ-LBD; expressed in transfected cells; host or cells: HEK293", "T1 sequence (P55055 222-460 limits assumed)": "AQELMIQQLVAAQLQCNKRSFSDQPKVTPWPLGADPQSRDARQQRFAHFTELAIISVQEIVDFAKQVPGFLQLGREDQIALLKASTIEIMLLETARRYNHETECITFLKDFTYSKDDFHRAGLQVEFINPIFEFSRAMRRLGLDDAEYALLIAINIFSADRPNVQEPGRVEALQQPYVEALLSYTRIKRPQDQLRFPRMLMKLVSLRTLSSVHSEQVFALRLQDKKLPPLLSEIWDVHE", "test": "LXRβ reporter gene assay in HEK293", "assay_type": "cell-based", "conditions": "read-out: LXRβ antagonistic activity (IC50)", "units": {"IC50": "µM"}}
{"smiles": "Cc1cc(C(O)(C(F)(F)F)C(F)(F)F)cc2c1[nH]c(=O)c1cc(F)ccc12", "note": "[Compound 44]", "IC50": "> 20"}
{"target": "T2, AR (Homo sapiens, UniProt P10275)", "T2 sequence (P10275 1-920)": "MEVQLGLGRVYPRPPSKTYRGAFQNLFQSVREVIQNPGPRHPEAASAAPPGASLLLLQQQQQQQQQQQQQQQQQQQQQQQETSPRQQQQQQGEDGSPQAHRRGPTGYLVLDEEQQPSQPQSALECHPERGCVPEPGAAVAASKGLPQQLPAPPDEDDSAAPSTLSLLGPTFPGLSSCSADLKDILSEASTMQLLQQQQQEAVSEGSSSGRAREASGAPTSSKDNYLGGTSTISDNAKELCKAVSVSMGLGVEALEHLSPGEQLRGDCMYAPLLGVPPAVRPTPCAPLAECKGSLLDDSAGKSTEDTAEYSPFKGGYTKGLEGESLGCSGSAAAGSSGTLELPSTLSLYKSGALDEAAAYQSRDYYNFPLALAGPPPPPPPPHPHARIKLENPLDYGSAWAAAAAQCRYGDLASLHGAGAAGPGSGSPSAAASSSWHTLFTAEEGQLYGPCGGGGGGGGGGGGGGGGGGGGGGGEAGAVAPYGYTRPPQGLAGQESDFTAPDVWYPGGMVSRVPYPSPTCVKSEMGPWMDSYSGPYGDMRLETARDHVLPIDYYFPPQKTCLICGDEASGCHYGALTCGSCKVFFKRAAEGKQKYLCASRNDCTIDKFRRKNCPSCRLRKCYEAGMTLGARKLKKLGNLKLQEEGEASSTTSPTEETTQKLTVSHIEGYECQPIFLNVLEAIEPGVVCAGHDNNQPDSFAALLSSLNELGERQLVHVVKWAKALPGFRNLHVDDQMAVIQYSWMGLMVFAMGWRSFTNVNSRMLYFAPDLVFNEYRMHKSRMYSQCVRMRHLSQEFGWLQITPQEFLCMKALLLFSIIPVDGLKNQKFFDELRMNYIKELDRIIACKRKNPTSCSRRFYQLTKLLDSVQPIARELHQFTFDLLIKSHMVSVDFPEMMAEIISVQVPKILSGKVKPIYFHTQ", "test": "AR reporter gene assay in HEK293", "assay_type": "cell-based", "conditions": "reporter gene assay, HEK293; agonist dihydrotestosterone 0.3 nM; read-out: AR antagonistic activity (IC50), AR reporter gene", "units": {"IC50": "µM"}}
{"smiles": "Cc1cc(C(O)(C(F)(F)F)C(F)(F)F)cc2c3ccc(F)cc3c(=O)n(C)c12", "note": "[Compound 3]", "IC50": 0.3}
{"smiles": "Cc1cc(C(O)(C(F)(F)F)C(F)(F)F)cc2c1[nH]c(=O)c1cc(F)ccc12", "note": "[Compound 44]", "IC50": 1.7}
{"target": "T3, RORα (Homo sapiens, UniProt P35398)", "T3 construct": "expressed in transfected cells; host or cells: HEK293", "T3 sequence (P35398 1-523)": "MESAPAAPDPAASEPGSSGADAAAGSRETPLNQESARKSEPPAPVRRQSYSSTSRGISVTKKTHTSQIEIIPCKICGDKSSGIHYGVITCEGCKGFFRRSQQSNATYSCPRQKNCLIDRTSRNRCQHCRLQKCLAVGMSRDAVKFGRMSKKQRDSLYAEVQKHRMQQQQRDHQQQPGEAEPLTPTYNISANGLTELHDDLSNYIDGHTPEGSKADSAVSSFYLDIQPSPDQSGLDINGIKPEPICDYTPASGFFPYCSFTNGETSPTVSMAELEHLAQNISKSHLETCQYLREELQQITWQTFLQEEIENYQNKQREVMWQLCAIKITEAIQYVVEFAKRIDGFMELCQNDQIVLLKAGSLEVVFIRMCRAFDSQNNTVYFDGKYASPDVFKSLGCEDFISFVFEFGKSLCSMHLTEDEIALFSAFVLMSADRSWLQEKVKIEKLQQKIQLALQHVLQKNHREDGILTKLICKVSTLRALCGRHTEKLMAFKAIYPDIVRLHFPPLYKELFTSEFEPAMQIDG", "test": "not given", "conditions": "reporter gene assay, HEK293; read-out: RORα inverse agonistic activity (IC50); cited from earlier work", "units": {"IC50": "µM"}}
{"smiles": "Cc1cc(C(O)(C(F)(F)F)C(F)(F)F)cc2c3ccc(F)cc3c(=O)n(C)c12", "note": "[Compound 3]", "IC50": "> 20"}
{"smiles": "Cc1cc(C(O)(C(F)(F)F)C(F)(F)F)cc2c1[nH]c(=O)c1ccccc12", "note": "[Compound 40]", "IC50": "> 20"}
{"smiles": "Cc1cc(C(O)(C(F)(F)F)C(F)(F)F)cc2c1[nH]c(=O)c1cc(F)ccc12", "note": "[Compound 44]", "IC50": "> 20"}
{"target": "T4, RORβ (Homo sapiens, UniProt Q92753)", "T4 construct": "expressed in transfected cells; host or cells: HEK293", "T4 sequence (Q92753 1-459 isoform Q92753-1)": "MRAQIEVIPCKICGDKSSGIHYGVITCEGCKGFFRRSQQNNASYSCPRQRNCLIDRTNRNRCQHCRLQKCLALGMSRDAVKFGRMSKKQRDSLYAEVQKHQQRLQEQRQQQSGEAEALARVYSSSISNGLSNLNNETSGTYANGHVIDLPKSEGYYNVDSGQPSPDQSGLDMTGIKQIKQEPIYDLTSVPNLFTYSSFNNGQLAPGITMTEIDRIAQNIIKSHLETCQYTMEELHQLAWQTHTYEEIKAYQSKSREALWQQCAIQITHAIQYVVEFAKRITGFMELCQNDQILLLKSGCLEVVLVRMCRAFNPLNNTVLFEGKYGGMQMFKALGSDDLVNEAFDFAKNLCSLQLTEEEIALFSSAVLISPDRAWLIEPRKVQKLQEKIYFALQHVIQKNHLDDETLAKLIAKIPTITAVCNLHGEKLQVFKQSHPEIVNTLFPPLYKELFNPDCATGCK", "test": "not given", "conditions": "reporter gene assay, HEK293; read-out: RORβ inverse agonistic activity (IC50); cited from earlier work", "units": {"IC50": "µM"}}
{"smiles": "Cc1cc(C(O)(C(F)(F)F)C(F)(F)F)cc2c3ccc(F)cc3c(=O)n(C)c12", "note": "[Compound 3]", "IC50": "> 20"}
{"smiles": "Cc1cc(C(O)(C(F)(F)F)C(F)(F)F)cc2c1[nH]c(=O)c1ccccc12", "note": "[Compound 40]", "IC50": "> 20"}
{"smiles": "Cc1cc(C(O)(C(F)(F)F)C(F)(F)F)cc2c1[nH]c(=O)c1cc(F)ccc12", "note": "[Compound 44]", "IC50": "> 20"}
{"target": "T5, RORγ (Homo sapiens, UniProt P51449)", "T5 construct": "expressed in transfected cells; host or cells: HEK293", "T5 sequence (P51449 1-518)": "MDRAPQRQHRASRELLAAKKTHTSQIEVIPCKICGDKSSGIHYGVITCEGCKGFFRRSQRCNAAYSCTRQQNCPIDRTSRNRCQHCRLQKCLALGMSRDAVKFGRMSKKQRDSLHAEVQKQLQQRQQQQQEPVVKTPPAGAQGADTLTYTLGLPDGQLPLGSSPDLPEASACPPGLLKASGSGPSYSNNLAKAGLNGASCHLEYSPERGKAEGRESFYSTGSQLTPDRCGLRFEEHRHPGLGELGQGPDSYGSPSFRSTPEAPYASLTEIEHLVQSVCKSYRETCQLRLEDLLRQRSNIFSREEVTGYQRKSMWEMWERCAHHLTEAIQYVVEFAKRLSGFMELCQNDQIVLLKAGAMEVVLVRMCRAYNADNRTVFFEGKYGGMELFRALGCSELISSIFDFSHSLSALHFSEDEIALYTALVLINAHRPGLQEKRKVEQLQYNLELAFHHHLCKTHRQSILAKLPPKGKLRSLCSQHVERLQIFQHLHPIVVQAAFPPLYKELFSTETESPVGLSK", "test": "not given", "conditions": "reporter gene assay, HEK293; read-out: RORγ inverse agonistic activity (IC50); cited from earlier work", "units": {"IC50": "µM"}}
{"smiles": "Cc1cc(C(O)(C(F)(F)F)C(F)(F)F)cc2c3ccc(F)cc3c(=O)n(C)c12", "note": "[Compound 3]", "IC50": "> 20"}
{"smiles": "Cc1cc(C(O)(C(F)(F)F)C(F)(F)F)cc2c1[nH]c(=O)c1ccccc12", "note": "[Compound 40]", "IC50": "> 20"}
{"smiles": "Cc1cc(C(O)(C(F)(F)F)C(F)(F)F)cc2c1[nH]c(=O)c1cc(F)ccc12", "note": "[Compound 44]", "IC50": "> 20"}
